Laboratory results from paper PMC11992225, “Antibacterial compounds against non-growing and intracellular bacteria” (npj Antimicrobials and Resistance, 2025).

Tests used:
[1] = tested on: SOS response in UPEC CFT073; assay: SOS response induction analysis, pAED2 cda' promoter mScarlet-I reporter; assay type: cell-based, Escherichia coli; details: 20 μM; for induction of the SOS response in growing UPEC cultures: 6 h, MMC, BLE, ECH in 1:4 CA-MHB pH 7.4, PLI, SAT, EVO in LPM pH 5.5
Procedure: Since we aimed to test SOS induction in non-growing cultures, it was essential to use a reporter with no leaky expression in the stationary phase. Therefore, we constructed the plasmid pAED2, based on the low copy-number plasmid pSC101, which contains the cda’ promoter in front of the mScarlet-I-encoding reporter gene.
Overnight cultures of CFT073 harboring a reporter plasmid were grown in 3 ml of LB supplemented with 100 µg/ml carbenicillin (Cb), then diluted 1:100 into the medium used for testing. For validation of the pANO1::cda’ reporter, an overnight culture was diluted into CA-MHB (supplemented with 40 mM HEPES, pH 7.4, and 100 µg/ml Cb) and grown to an OD600 ≈ 0.5 at 37 °C with shaking at 200 rpm in an Erlenmeyer flask. […] Empty wells were filled with water. […] The experiment was performed in triplicate.
For analysis of the SOS induction by anti-cancer compounds, the overnight cultures were diluted either into 1:4 diluted CA-MHB (40 mM HEPES, pH 7.4) or LPM (30 mM MES, pH 5.5) that were supplemented with 100 µg/ml Cb. For analysis of the effect on growing bacteria, the cultures were incubated at 37 °C with shaking at 200 rpm in Erlenmeyer flasks for 90 min, to an OD600 ≈ 0.5. Then, 180 μl aliquots were transferred to 96-well plates, and 20 μl of the 200 μM drug solution was added to achieve a final concentration of 20 μM. The plates were incubated in a microplate reader (BioTek Synergy H1) at 37 °C with continuous shaking for 6 h. OD600 and mScarlet fluorescence were recorded throughout the incubation.
For analysis of the effect of anti-cancer compounds on stationary phase- and regrowing bacteria, the cultures were incubated for 24 h at 37 °C with shaking at 200 rpm in Erlenmeyer flasks. […] The samples were incubated for 24 h at 37 °C in standing 1.5 ml tubes. Before and after the drug treatment, 25 μl aliquots were taken and diluted by mixing with 175 μl PBS. OD600 and mScarlet fluorescence were recorded using a microplate reader (BioTek Synergy H1).
After the treatment, stationary-phase bacteria were harvested by centrifugation at 5000 × g for 5 min at 20 °C, washed twice with PBS, and resuspended in 475 μl PBS.

[2] = tested on: non-growing UPEC CFT073; assay: Dose-dependent killing analysis (CFU spot-plating) of stationary-phase UPEC; assay type: cell-based, Escherichia coli
Summary of the method: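 Non-growing (stationary-phase) UPEC CFT073 treated with compounds in 96-well format at 200 μl, then 10-fold serially diluted in PBS and 10 μl spots plated on LB agar. Plates incubated overnight at 37 °C; colonies counted at lowest resolvable dilution to give CFU. Three biological replicates.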

[3] = E. coli in 1:4 CA-MHB (pH 7.4), 0.25 μM
[4] = E. coli in 1:4 CA-MHB (pH 7.4), 0.5 μM
[5] = E. coli in 1:4 CA-MHB (pH 7.4), 1 μM
[6] = E. coli in 1:4 CA-MHB (pH 7.4), 2.5 μM
[7] = E. coli in 1:4 CA-MHB (pH 7.4), 5 μM
[8] = E. coli in 1:4 CA-MHB (pH 7.4), 10 μM
[9] = E. coli in LPM (pH 5.5), 0.25 μM
[10] = E. coli in LPM (pH 5.5), 0.5 μM
[11] = E. coli in LPM (pH 5.5), 2.5 μM

## Plicamycin
[1]
  induction of the SOS response in growing UPEC cultures: not detected
[1]; LPM pH 5.5, Fig. S7C,D
  growth inhibition of growing UPEC: only a slight growth inhibition

## CS[C@H]1SC[C@H]2C(=O)N(C)[C@@H](C(C)C)C(=O)OC[C@@H](NC(=O)c3cnc4ccccc4n3)C(=O)N[C@@H](C)C(=O)N(C)[C@@H]1C(=O)N(C)[C@@H](C(C)C)C(=O)OC[C@@H](NC(=O)c1cnc3ccccc3n1)C(=O)N[C@@H](C)C(=O)N2C [Echinomycin]
[2]; [3]
  Log10(CFU/ml), Replicate #1: 9.431 Log10(CFU/ml)
  Log10(CFU/ml), Replicate #2: 8.699 Log10(CFU/ml)
  Log10(CFU/ml), Replicate #3: 8.505 Log10(CFU/ml)
[2]; E. coli in 1:4 CA-MHB (pH 7.4), 0.25 μM, average killing vs before treatment (8.977)
  Δlog10(CFU/ml): 0.099 log10(CFU/ml)
[2]; [4]
  Log10(CFU/ml), Replicate #1: 9.415 Log10(CFU/ml)
  Log10(CFU/ml), Replicate #2: 9.079 Log10(CFU/ml)
  Log10(CFU/ml), Replicate #3: 8.447 Log10(CFU/ml)
[2]; E. coli in 1:4 CA-MHB (pH 7.4), 0.5 μM, average killing vs before treatment (8.977)
  Δlog10(CFU/ml): -0.003 log10(CFU/ml)
[2]; [5]
  Log10(CFU/ml), Replicate #1: 9.380 Log10(CFU/ml)
  Log10(CFU/ml), Replicate #2: 9.114 Log10(CFU/ml)
  Log10(CFU/ml), Replicate #3: 8.398 Log10(CFU/ml)
[2]; E. coli in 1:4 CA-MHB (pH 7.4), 1 μM, average killing vs before treatment (8.977)
  Δlog10(CFU/ml): 0.013 log10(CFU/ml)
[2]; [6]
  Log10(CFU/ml), Replicate #1: 9.398 Log10(CFU/ml)
  Log10(CFU/ml), Replicate #2: 8.699 Log10(CFU/ml)
  Log10(CFU/ml), Replicate #3: 8.398 Log10(CFU/ml)
[2]; E. coli in 1:4 CA-MHB (pH 7.4), 2.5 μM, average killing vs before treatment (8.977)
  Δlog10(CFU/ml): 0.146 log10(CFU/ml)
[2]; [7]
  Log10(CFU/ml), Replicate #1: 9.362 Log10(CFU/ml)
  Log10(CFU/ml), Replicate #2: 8.477 Log10(CFU/ml)
  Log10(CFU/ml), Replicate #3: 8.477 Log10(CFU/ml)
[2]; E. coli in 1:4 CA-MHB (pH 7.4), 5 μM, average killing vs before treatment (8.977)
  Δlog10(CFU/ml): 0.205 log10(CFU/ml)
[2]; [8]
  Log10(CFU/ml), Replicate #1: 8.342 Log10(CFU/ml)
  Log10(CFU/ml), Replicate #2: 8.079 Log10(CFU/ml)
  Log10(CFU/ml), Replicate #3: 8.342 Log10(CFU/ml)
[2]; E. coli in 1:4 CA-MHB (pH 7.4), 10 μM, average killing vs before treatment (8.977)
  Δlog10(CFU/ml): 0.723 log10(CFU/ml)
[2]; [9]
  Log10(CFU/ml), Replicate #1: 6.778 Log10(CFU/ml)
  Log10(CFU/ml), Replicate #2: 7.114 Log10(CFU/ml)
  Log10(CFU/ml), Replicate #3: 8.398 Log10(CFU/ml)
[2]; E. coli in LPM (pH 5.5), 0.25 μM, average killing vs before treatment (7.350)
  Δlog10(CFU/ml): -0.080 log10(CFU/ml)
[2]; [10]
  Log10(CFU/ml), Replicate #1: 6.954 Log10(CFU/ml)
  Log10(CFU/ml), Replicate #2: 6.954 Log10(CFU/ml)
  Log10(CFU/ml), Replicate #3: 8.000 Log10(CFU/ml)
[2]; E. coli in LPM (pH 5.5), 0.5 μM, average killing vs before treatment (7.350)
  Δlog10(CFU/ml): 0.048 log10(CFU/ml)
[2]; E. coli in LPM (pH 5.5), 1 μM
  Log10(CFU/ml), Replicate #1: 6.954 Log10(CFU/ml)
  Log10(CFU/ml), Replicate #2: 7.255 Log10(CFU/ml)
  Log10(CFU/ml), Replicate #3: 8.301 Log10(CFU/ml)
[2]; E. coli in LPM (pH 5.5), 1 μM, average killing vs before treatment (7.350)
  Δlog10(CFU/ml): -0.153 log10(CFU/ml)
[2]; [11]
  Log10(CFU/ml), Replicate #1: 6.954 Log10(CFU/ml)
  Log10(CFU/ml), Replicate #2: 6.845 Log10(CFU/ml)
  Log10(CFU/ml), Replicate #3: 8.230 Log10(CFU/ml)
[2]; E. coli in LPM (pH 5.5), 2.5 μM, average killing vs before treatment (7.350)
  Δlog10(CFU/ml): 0.007 log10(CFU/ml)
[2]; E. coli in LPM (pH 5.5), 5 μM
  Log10(CFU/ml), Replicate #1: 6.778 Log10(CFU/ml)
  Log10(CFU/ml), Replicate #2: 7.342 Log10(CFU/ml)
  Log10(CFU/ml), Replicate #3: 8.204 Log10(CFU/ml)
[2]; E. coli in LPM (pH 5.5), 5 μM, average killing vs before treatment (7.350)
  Δlog10(CFU/ml): -0.091 log10(CFU/ml)
[2]; E. coli in LPM (pH 5.5), 10 μM
  Log10(CFU/ml), Replicate #1: 6.279 Log10(CFU/ml)
  Log10(CFU/ml), Replicate #2: 6.362 Log10(CFU/ml)
  Log10(CFU/ml), Replicate #3: 6.602 Log10(CFU/ml)
[2]; E. coli in LPM (pH 5.5), 10 μM, average killing vs before treatment (7.350)
  Δlog10(CFU/ml): 0.936 log10(CFU/ml)
[1]
  induction of the SOS response in growing UPEC cultures: induced the SOS response
